Columns and labels:
[1] = system: collagen-induced arthritis (CIA); assay: Collagen-induced arthritis (CIA) model, paw size and clinical score; type: in vivo, female DBA/1 mice
Procedure: Female DBA/1 mice were injected with purified collagen type II in CFA i.d. (intradermal), then boosted with collagen type II in IFA, s.c., (subcutaneous) on day 21 followed by a day 28 LPS injection i.p. to induce arthritis (CIA). Mice that scored a ‘1’ or better for each paw were considered arthritic and entered into the study. Treatments started after 7-10 days of arthritis induction. Compound A was provided orally, b.i.d., for all doses tested; Dex was administered i.p. at 1.5 mg/kg, three times a week; and vehicle (PEG400+1% DMSO) was provided orally, b.i.d.
Compound A was then tested in a more physiologic and progressive disease model of RA (i.e., collagen-induced arthritis (CIA) model). […] Early model optimization studies consistently generated robust collagen-induced-arthritis phenotypes that were absent from control treated, non-diseased, animals. CIA arthritic animals were separated into groups and treated with Compound A at 30, 55 and 100 mg/kg doses b.i.d, p.o.; vehicle or the standard-of-care reference drug, Dex at 1.5 mg/kg, which were administered as described above. […] The faster onset of swelling reduction noted for the 100 mg/kg treatment group may be explained by differences in the mechanism of action of Compound A.
Acclimated mice were randomized and pre-bled and measured for baseline inflammation before any studies were initiated. On day 0, DBA/1 female mice were given a primary immunization with equal volumes of bovine type II collagen (CII), 2 mg/ml stock in 0.05 M acetic acid, (Chrondrex, Redmond, Wash.) suspended in CFA, 5 mg/ml (Chondrex, Redmond, Wash.) emulsion yielding an injection of 100 μg of CII at 100 μl into the base of the tail intradermally (i.d.). At day 21 post primary immunization, mice were re-challenged with CII emulsified in Incomplete Freund's Adjuvant (IFA) (Thermo Scientific, Rockford, Ill.) s.c. on the flank of the mouse. On day 28 each mouse received an i.p. injection of E. coli 0111:B4 LPS (0.5 mg/ml stock) (Chondrex, Redmond, Wash.) at 10 μg in 100 μl of saline (25-50 μg of LPS was reduced to 10 μg per mouse to reduce mortality associated with endotoxic shock). Around day 35 the mice begin to show signs of paw inflammation and disease. Before starting treatment mice were randomized, grouped, scored, ear tagged and pre-bled to determine baseline disease. […] Arthritis clinical scores were the same as that used to score the CAIA model (see CAIA methods). Vehicle consisted of PEG400 plus 1% DMSO given orally, twice daily (b.i.d). […] All samples were kept at −80° C. until ready to assay. At about day 60 mice were harvested for spleen, plasma and arthritic paws for STAT and cytokine quantitation and histological analysis.

[2] = system: collagen-antibody-induced arthritis (CAIA); assay: CAIA model, joint histopathology scores; type: in vivo, female DBA/1 mice; details: compared to vehicle controls
Procedure: Tissues were also stained with Safranin-O to evaluate matrix degeneration. Five representative mice from each group were sent for histological analysis and graded according to a scoring method described herein. The data in the figures represent mean±SEM, all statistics were performed using Prism® software and 2-way ANOVA analysis. H&E and Safranin-O stained paraffin wax embedded carpus and tarsus sections were scored by a board certified, independent pathologist for the criteria described in the materials and methods. Tabulated data represent mean±SD (standard deviation) values for the tarsus only. Statistics were performed using 2-way ANOVA analysis, *p<0.05; **p<0.01; ***p<0.001, N=5 mice per group tested. At the end of each experiment, front and hind paws (including carpus and tarsus) were removed from the body of the animal for histological analysis. Skin from the ends of the digits was removed and the metatarsal region skin perforated using surgical scissors to allow full decalcification. […] After 7-10 days of decalcification, samples were washed for 2 hours in distilled water and stored in 70% ethanol at 4° C. until ready to be processed. […] A total of five mice from each group were analyzed via histopathology, 10× representative images are shown for each group tested.

[3] = system: JAK2 in HEL92 cells (phosphorylation of STAT5); assay: Inhibition of STAT5 phosphorylation in HEL92 cells (western blot); type: cell-based; details: 1 hour, serum-free media
[4] = system: collagen-induced arthritis (CIA); assay: CIA model, joint histopathology; type: in vivo, female DBA/1 mice
Procedure: Tissues were also stained with Safranin-O to detect matrix degeneration and this information was used for scoring. The data in the figure represents mean±SEM, statistics were performed using Prism® software and 2-way ANOVA analysis, *p<0.05, **p<0.01, ***p<0.001. H&E and safranin-O stained paraffin wax embedded carpus and tarsus sections were scored by a board certified, independent pathologist for the criteria described in the materials and methods. Tabulated data represent mean±SD values for the tarsus only. Statistics were performed using 2-way ANOVA analysis, *p<0.05; **p<0.01; ***p<0.001, N=5 mice per group tested. At the end of each experiment, front and hind paws (including carpus and tarsus) were removed from the body of the animal for histological analysis. Skin from the ends of the digits was removed and the metatarsal region skin perforated using surgical scissors to allow full decalcification. Samples followed a decalcification procedure using formic acid as described elsewhere [21, 22]. After 7-10 days of decalcification, samples were washed for 2 hours in distilled water and stored in 70% ethanol at 4° C. until ready to be processed. Samples were paraffin embedded, sectioned and stained with Hematoxylin and Eosin (H&E) stain, also Safranin-O for matrix degradation (images not shown, used by pathologist for scoring). All histology work was performed at the Wistar Institute (Philadelphia, Pa.). […] A total of five mice from each group were analyzed via histopathology, 10× representative images are shown for each group tested.

[5] = system: panel of 402 kinases; assay: Kinome binding assays, selectivity panel; details: test concentration 1 μM
[6] = system: pro-inflammatory cytokines in paw extracts; assay: CAIA model, paw cytokines (Luminex bead assay); type: in vivo, female DBA/1 mice
Procedure: DBA/1 female mice were injected i.v. with purified anti-collagen type II antibodies, then given 25 μg of LPS i.p. three days later to induce arthritis by day 5. Mice that met the arthritis criteria score of 1 per paw were entered into the study.
The cytokines were measured using known procedures [32].
Briefly, the front (including carpus) and back (including tarsus) right paws were collected and frozen in dry-ice cooled isopentane and stored at −80° C. until use. The paws were cut to 2 mm×2 mm segments and kept on dry-ice in round bottom polypropylene tubes. Seven hundred microliters tissue extraction buffer containing protease inhibitor cocktail (Calbiochem, San Diego, Calif.) and Halt phosphatase inhibitor cocktail (Thermo Scientific, Rockford, Ill.) or Roche phosphatase inhibitor cocktail (Roche, Indianapolis, Ind.) in tissue extraction reagent I (Invitrogen, Carlesbad, Calif.) were added to each sample. Samples were homogenized frozen using a PT 10-35 Polytron homogenizer. After homogenization, samples were centrifuged at 4° C. for 2000×g for 10 minutes and supernatants re-centrifuged at 4° C. at maximum speed, 14,000×g, for 15 minutes. Supernatants were carefully removed to avoid picking up the top layer of lipids/adipose debris. Protein concentration was measured using a BCA protein assay (Pierce, Rockford, Ill.) and adjusted to 3 mg/ml. A minimum of 25 μl of this extraction was used in the above described protocol using the mouse cytokine 10-plex bead kit (Invitrogen, Carlsbad, Calif.) or phosphorylated STAT1, 3, 5a/b, 3-plex kit (Invitrogen, Carlsbad, Calif.).

[7] = system: CB11-specific, IFNγ secreting T cells; assay: CIA model, ex vivo IFNγ T-cell Elispot of splenocytes; type: in vivo, female DBA/1 mice; details: four weeks
Description: FIG. 4D: Depicts IFNγ Elispot® results from stimulated splenocytes from treated mice challenged with collagen type II fragment (CB11), OVA or media alone. The Elispot images shown in the figure are representative of each treatment group and the bar graph represents data using four mice from each treatment group. Spots were counted using a C.T.L. Immunospot Elispot scanner and spot counting software.
For CIA experiments, Millipore nitrocellulose IP filter plates (Millipore, Billerica, Mass.) were coated with either anti-mouse IFNγ (AN18, MabTech, Mariemont, Ohio) or anti-mouse IL-4 (11B11, eBioscience, San Diego, Calif.) at 7 μg/ml or 2 μg/ml, respectively, in sterile PBS at 60 μl per well and incubated for 3 hours at RT or overnight at 4° C. Coated wells were washed with PBS plus 0.1% Tween-20 and patted semi-dry before blocking using complete media for at least 1 hour before use. Purified mouse collagen type II (Chrondrex, Redmond, Wash.), type I (Chrondrex, Redmond, Wash.) or third party control chicken ovalbumin (OVA) (Sigma, St. Louis, Mo.) were used to challenge 1 million processed splenocytes per well at 10 μg/ml of total antigen concentration. Media alone were used as background controls, OVA as third party controls and PMA plus Ionomycin as positive controls for IFNγ and IL-4 release by Th1 and Th2 cells, respectively.

[8] = CIA, 30, 55 and 100 mg/kg b.i.d. p.o.

`CN1CCN(c2cccc(Nc3nc4c(-c5ccc(S(C)(=O)=O)cc5)cccn4n3)c2)CC1` [Compound A, [8-(4-Methanesulfonyl-phenyl)-[1,2,4]triazolo[1,5-a]pyridin-2-yl]-[3-(4-methyl-piperazin-1-yl)-phenyl]-amine] was tested, and the “suppression of paw swelling versus Dex” value ([1]; CIA, 100 mg/kg) was “near identical suppression of paw swelling”, the “onset of swelling reduction versus Dex” value ([1]; CIA, 100 mg/kg, day 43) was “more rapid drop in swelling as compared to the Dex treatment group” and the clinical score [1, 8] was “reduction in clinical score in a dose-dependent manner”. For the same compound, the mean paw size [1, 8] was “clear reduction in the mean paw size”, the “histopathology parameters (matrix erosions, subchondral osteolysis, osteoproliferation, synovial proliferation, pannus formation, degree of inflammation)” value [2] was “significantly decrease several parameters” and the “inhibition of JAK2, phosphorylation of STAT5” value [3] was “shown to inhibit JAK2 in HEL92 cells”. For the same compound, the “histological protection of the tarsus” value ([4]; 55 mg/kg) was “provided protection in the tarsus”, the “histopathology scores, significance versus vehicle” value ([4]; 55 mg/kg, p<0.05) was “Significance was only observed for the degree of inflammation” and the “histological protection of carpus and tarsus” value ([4]; 100 mg/kg) was “provided the best protection for both regions”. For the same compound, the “histological protection of the tarsus” value ([4]; 100 mg/kg) was “provided protection in the tarsus”, the “histopathology scores, significance versus vehicle” value ([4]; 100 mg/kg, p<0.01) was “Significance was only observed for the degree of inflammation” and the “share of the panel inhibited by >90%” value ([5]; 402 kinases) was 9%. For the same compound, the “share of the panel inhibited by >99%” value ([5]; 402 kinases) was 1%, the “selectivity score S(90)402” value ([5]; score of Karaman et al) was 0.09 and the “selectivity score S(99)402” value ([5]; score of Karaman et al) was 0.01. The “paw IL-6 concentration” value ([6]; CAIA experiment, 4 hours post dosing, p<0.05) was “reduction in paw IL-6”, the “level of pro-inflammatory cytokines in paw extracts” value ([6]; CAIA, 55 mg/kg) was “significantly reduced the level of several of the cytokines” and the “cytokine suppression over the study (IL-1β, IL-6, TNFα, IL-12)” value ([6]; CAIA, 55 mg/kg, p<0.01 vs vehicle) was “lowered and sustained cytokine suppression for the remainder of the study”. The “level of pro-inflammatory cytokines in paw extracts” value ([6]; CAIA, 100 mg/kg) was “significantly reduced the level of several of the cytokines”, the “dose dependence of cytokine reduction in paw extracts” value ([6]; CAIA, 30, 55 and 100 mg/kg, especially GM-CSF, IL-12, IL-2, IL-4) was “Dose-dependent reductions were observed for all cytokines tested” and the “paw cytokine expression compared with Dex group” value ([6]; CAIA, several of the cytokines tested, p<0.05 vs vehicle) was “significantly decreased cytokine expression below the levels observed in the Dex treatment group”. The “frequency of CB11-specific, IFNγ secreting T cells” value ([7]; 55 mg/kg b.i.d. p.o.) was “significant reduction in the frequency of CB11-specific, IFNγ secreting T cells” and the “frequency of CB11-specific, IFNγ secreting T cells” value ([7]; 100 mg/kg b.i.d. p.o.) was “significant reduction in the frequency of CB11-specific, IFNγ secreting T cells”.

Source: US9034876B2, “Treatment of chronic inflammation with a 1,2,4-triazolo [1,5a] pyridine derivative” (Cephalon, Inc., priority 2010, dated 2015)
